For assay [1], the system named is TP3-T6 (DNA, G4) TGGGGTCCGAGGCGGGGCTTGGG
In words: CD melting at 285 nm. Conditions: 70 mM KCl, 20 mM phosphate, pH 7.1, 2 µM DNA, 6 µM ligand.

The test system is the same in assay [2]. In words: ligand fluorescence titration, EQUISPEC multivariate fit. Conditions: 70 mM KCl, 20 mM potassium phosphate; 20 mM phosphate buffer, pH 7.1, 20 °C, 3 µM ligand.
Assay [3] shares this test system. Briefly: 1H NMR imino proton titration. To be noted: 70 mM KCl, 20 mM KH2PO4, pH 7.0, 25 °C, H2O/D2O 9:1, DMSO <7%.

Structures are written as SMILES.

A word on the ΔTm: it is the change in melting temperature against a reference sample. For `NC(=O)c1cccc2cn(-c3ccc([C@@H]4CCCNC4)cc3)nc12`, in assay [1] (derived from two Tm (60.3 ± 1.3, 59.6 ± 0.8)), the ΔTm turned out to be 0.7 °C. The Kb in assay [2] is on record as 5.24 ± 0.20 × 10^5 M^-1. In addition, the binding result in assay [3] (R up to 2.0, 3'-end tetrad) is “yes”.

For the compound `NC(=O)n1ccc2ccc(-c3ccc(CN4CCCCC4)cc3)nc21`, the ΔTm in assay [1] (derived from two Tm (60.2 ± 1.0, 59.6 ± 0.8)) was 0.6 °C. The Kb in assay [2] is 5.45 ± 0.15 × 10^5 M^-1. Moreover, the binding entry in assay [3] (R up to 2.0, 3'-end tetrad) is “yes”.

For the compound `C[C@]1(c2nc3c(C(N)=O)cccc3[nH]2)CCCN1`, the ΔTm in assay [1] (derived from two Tm (58.8 ± 1.3, 59.6 ± 0.8)) is -0.8 °C. Further, in assay [2], the Kb is recorded as 5.48 ± 0.16 × 10^5 M^-1. Further, the binding entry in assay [3] (R up to 2.0, 5'-end tetrad slightly shifted) is on record as “weak”.

In the case of `O=C(c1cc(Cc2n[nH]c(=O)c3ccccc23)ccc1F)N1CCN(C(=O)C2CC2)CC1`, the binding entry in assay [3] (up to R = 2.0, DNA 0.24–0.48 mM) is “no”.

(Values after publication PMC8395737 (2021).)
